{"source": "patent US20150141381A1", "about": "“TETRACYCLINE COMPOUNDS HAVING TARGET THERAPEUTIC ACTIVITIES” (Paratek Pharmaceuticals, Inc., priority 2001, published 2015)", "key": {"S. aureus RN450": {"tested_on": "S. aureus RN450", "experiment": "In Vitro Anti-Bacterial Activity Assay (MIC), gram positive", "format": "cell-based", "settings": "Staphylococcus aureus, RN450, 18 h"}, "E. coli mL308 225": {"tested_on": "E. coli mL308 225", "experiment": "In Vitro Anti-Bacterial Activity Assay (MIC), gram negative", "format": "cell-based", "settings": "Escherichia coli, ML308225, 18 h"}, "[1]": {"settings": "gram positive bacteria, read-out: Antibiotic Activity Gram + (MIC)"}, "[2]": {"settings": "gram negative bacteria, read-out: Antibiotic Activity Gram − (MIC)"}, "[3]": {"settings": "MIC class, Table 3 (Continued), read-out: Gram+ activity"}, "[4]": {"settings": "MIC class, Table 3 (Continued), read-out: Gram− activity"}, "[5]": {"settings": "MIC class, Table 3, read-out: Antibiotic Activity Gram +"}, "[6]": {"settings": "MIC class, Table 3, read-out: Antibiotic Activity Gram −"}}, "note": "Read-outs that look alike come from different tables or passages of the source."}
{"smiles": "COC(=O)C1CCN(CC(=O)Nc2ccc(-c3ccc(O)c4c3C[C@H]3C[C@H]5[C@H](N(C)C)C(O)=C(C(N)=O)C(=O)[C@@]5(O)C(O)=C3C4=O)cc2)CC1", "values": [{"measurement": "MIC", "setting": "S. aureus RN450; [1]", "value": "< 4", "unit": "µg/mL"}, {"measurement": "MIC", "setting": "E. coli mL308 225; [2]", "value": "> 4", "unit": "µg/mL"}]}
{"smiles": "CN(C)[C@@H]1C(O)=C(C(N)=O)C(=O)[C@@]2(O)C(O)=C3C(=O)c4c(O)ccc(C#CC5=CCCCC5)c4C[C@H]3C[C@@H]12", "values": [{"measurement": "MIC", "setting": "S. aureus RN450; [3]", "value": "< 4", "unit": "µg/mL"}, {"measurement": "MIC", "setting": "E. coli mL308 225; [4]", "value": "< 4", "unit": "µg/mL"}]}
{"smiles": "C[C@H]1c2cccc(O)c2C(=O)C2=C(O)[C@]3(O)C(=O)C(C(N)=O)=C(O)[C@@H](N(C)C)[C@@H]3[C@@H](O)[C@@H]21", "note": "[drawing 3660]", "values": [{"measurement": "MIC", "setting": "S. aureus RN450; [1]", "value": "< 4", "unit": "µg/mL"}, {"measurement": "MIC", "setting": "E. coli mL308 225; [2]", "value": "> 4", "unit": "µg/mL"}]}
{"smiles": "CN(C)c1cc(CNc2ccccc2)c(O)c2c1C[C@H]1C[C@H]3[C@H](N(C)C)C(O)=C(C(N)=O)C(=O)[C@@]3(O)C(O)=C1C2=O", "values": [{"measurement": "MIC", "setting": "S. aureus RN450; [1]", "value": "< 4", "unit": "µg/mL"}, {"measurement": "MIC", "setting": "E. coli mL308 225; [2]", "value": "> 4", "unit": "µg/mL"}]}
{"smiles": "CC(C)CN(C=O)Cc1cc(N(C)C)c2c(c1O)C(=O)C1=C(O)[C@]3(O)C(=O)C(C(N)=O)=C(O)[C@@H](N(C)C)[C@@H]3C[C@@H]1C2", "values": [{"measurement": "MIC", "setting": "S. aureus RN450; [1]", "value": "> 4", "unit": "µg/mL"}, {"measurement": "MIC", "setting": "E. coli mL308 225; [2]", "value": "> 4", "unit": "µg/mL"}]}
{"smiles": "COCC(=O)Nc1cccc(-c2ccc(O)c3c2C[C@H]2C[C@H]4[C@H](N(C)C)C(O)=C(C(N)=O)C(=O)[C@@]4(O)C(O)=C2C3=O)c1", "values": [{"measurement": "MIC", "setting": "S. aureus RN450; [1]", "value": "< 4", "unit": "µg/mL"}, {"measurement": "MIC", "setting": "E. coli mL308 225; [2]", "value": "> 4", "unit": "µg/mL"}]}
{"smiles": "CN(C)c1cc(CNCc2cccn2C)c(O)c2c1C[C@H]1C[C@H]3[C@H](N(C)C)C(O)=C(C(N)=O)C(=O)[C@@]3(O)C(O)=C1C2=O", "values": [{"measurement": "MIC", "setting": "S. aureus RN450; [1]", "value": "< 4", "unit": "µg/mL"}, {"measurement": "MIC", "setting": "E. coli mL308 225; [2]", "value": "> 4", "unit": "µg/mL"}]}
{"smiles": "CC(=O)c1ccc(-c2ccc(O)c3c2C[C@H]2C[C@H]4[C@H](N(C)C)C(O)=C(C(N)=O)C(=O)[C@@]4(O)C(O)=C2C3=O)cc1", "values": [{"measurement": "MIC", "setting": "S. aureus RN450; [3]", "value": "< 4", "unit": "µg/mL"}, {"measurement": "MIC", "setting": "E. coli mL308 225; [4]", "value": "< 4", "unit": "µg/mL"}]}
{"smiles": "CN(C)c1cc(CNCC(=O)C(C)(C)C)c(O)c2c1C[C@H]1C[C@H]3[C@H](N(C)C)C(O)=C(C(N)=O)C(=O)[C@@]3(O)C(O)=C1C2=O", "values": [{"measurement": "MIC", "setting": "S. aureus RN450; [1]", "value": "< 4", "unit": "µg/mL"}, {"measurement": "MIC", "setting": "E. coli mL308 225; [2]", "value": "> 4", "unit": "µg/mL"}]}
{"smiles": "CC1c2cccc(O)c2C(=O)C(C(=O)O)C1[C@H](O)[C@@H]1CC(=O)C(C(N)=O)=C(O)[C@H]1N(C)C", "note": "(some centres unmarked)", "values": [{"measurement": "MIC", "setting": "S. aureus RN450; [3]", "value": "> 4", "unit": "µg/mL"}, {"measurement": "MIC", "setting": "E. coli mL308 225; [4]", "value": "> 4", "unit": "µg/mL"}]}
{"smiles": "CN(C)c1cc(C#Cc2cccc(O)c2)c(O)c2c1C[C@H]1C[C@H]3[C@H](N(C)C)C(O)=C(C(N)=O)C(=O)[C@@]3(O)C(O)=C1C2=O", "note": "[AJ]", "values": [{"measurement": "MIC", "setting": "S. aureus RN450; [5]", "value": "< 4", "unit": "µg/mL"}, {"measurement": "MIC", "setting": "E. coli mL308 225; [6]", "value": "> 4", "unit": "µg/mL"}]}
{"smiles": "CN(C)c1cc(CN2CCC(F)CC2)c(O)c2c1C[C@H]1C[C@H]3[C@H](N(C)C)C(O)=C(C(N)=O)C(=O)[C@@]3(O)C(O)=C1C2=O", "values": [{"measurement": "MIC", "setting": "S. aureus RN450; [1]", "value": "< 4", "unit": "µg/mL"}, {"measurement": "MIC", "setting": "E. coli mL308 225; [2]", "value": "< 4", "unit": "µg/mL"}]}
{"smiles": "CCc1cc(CNCC(C)C)c(O)c2c1C[C@H]1C[C@H]3[C@H](N(C)C)C(O)=C(C(N)=O)C(=O)[C@@]3(O)C(O)=C1C2=O", "note": "[IZ]", "values": [{"measurement": "MIC", "setting": "S. aureus RN450; [5]", "value": "< 4", "unit": "µg/mL"}, {"measurement": "MIC", "setting": "E. coli mL308 225; [6]", "value": "< 4", "unit": "µg/mL"}]}
{"smiles": "CN(C)[C@@H]1C(O)=C(C(N)=O)C(=O)[C@@]2(O)C(O)=C3C(=O)c4c(O)ccc(/C=C/c5ccccc5)c4C[C@H]3C[C@@H]12", "values": [{"measurement": "MIC", "setting": "S. aureus RN450; [3]", "value": "< 4", "unit": "µg/mL"}, {"measurement": "MIC", "setting": "E. coli mL308 225; [4]", "value": "< 4", "unit": "µg/mL"}]}
{"smiles": "CCN(CC)c1ccc(O)c2c1C[C@H]1C[C@H]3[C@H](N(C)C)C(O)=C(C(N)=O)C(=O)[C@@]3(O)C(O)=C1C2=O", "values": [{"measurement": "MIC", "setting": "S. aureus RN450; [1]", "value": "< 4", "unit": "µg/mL"}, {"measurement": "MIC", "setting": "E. coli mL308 225; [2]", "value": "< 4", "unit": "µg/mL"}]}
{"smiles": "CN(C)c1cc(CNC(=O)C2(N)CC2)c(O)c2c1C[C@H]1C[C@H]3[C@H](N(C)C)C(O)=C(C(N)=O)C(=O)[C@@]3(O)C(O)=C1C2=O", "values": [{"measurement": "MIC", "setting": "S. aureus RN450; [1]", "value": "< 4", "unit": "µg/mL"}, {"measurement": "MIC", "setting": "E. coli mL308 225; [2]", "value": "> 4", "unit": "µg/mL"}]}
{"smiles": "CCOC(=O)C(NCc1ccc(OC)c(-c2ccc(O)c3c2C[C@H]2C[C@H]4[C@H](N(C)C)C(O)=C(C(N)=O)C(=O)[C@@]4(O)C(O)=C2C3=O)c1)C(C)C", "note": "(some centres unmarked) [FX]", "values": [{"measurement": "MIC", "setting": "S. aureus RN450; [5]", "value": "< 4", "unit": "µg/mL"}, {"measurement": "MIC", "setting": "E. coli mL308 225; [6]", "value": "> 4", "unit": "µg/mL"}]}
{"smiles": "CN(C)c1cc(CN2CCc3ccccc3C2)c(O)c2c1C[C@H]1C[C@H]3[C@H](N(C)C)C(O)=C(C(N)=O)C(=O)[C@@]3(O)C(O)=C1C2=O", "values": [{"measurement": "MIC", "setting": "S. aureus RN450; [1]", "value": "< 4", "unit": "µg/mL"}, {"measurement": "MIC", "setting": "E. coli mL308 225; [2]", "value": "< 4", "unit": "µg/mL"}]}
{"smiles": "CCCCCc1ccc(O)c2c1C[C@H]1C[C@H]3C(N(C)C)C(O)=C(C(N)=O)C(=O)[C@@]3(O)C(O)=C1C2=O", "note": "(some centres unmarked)", "values": [{"measurement": "MIC", "setting": "S. aureus RN450; [3]", "value": "< 4", "unit": "µg/mL"}, {"measurement": "MIC", "setting": "E. coli mL308 225; [4]", "value": "< 4", "unit": "µg/mL"}]}
{"smiles": "CN(C)c1cc(CNC(=O)Oc2ccc(F)cc2)c(O)c2c1C[C@H]1C[C@H]3[C@H](N(C)C)C(O)=C(C(N)=O)C(=O)[C@@]3(O)C(O)=C1C2=O", "note": "[FJ]", "values": [{"measurement": "MIC", "setting": "S. aureus RN450; read-out: Antibiotic Activity Gram +", "value": "< 4", "unit": "µg/mL"}, {"measurement": "MIC", "setting": "E. coli mL308 225; read-out: Antibiotic Activity Gram −", "value": "> 4", "unit": "µg/mL"}]}
{"smiles": "CN(C)c1ccc(-c2cc(I)c(O)c3c2C[C@H]2C[C@H]4[C@H](N(C)C)C(O)=C(C(N)=O)C(=O)[C@@]4(O)C(O)=C2C3=O)cc1", "values": [{"measurement": "MIC", "setting": "S. aureus RN450; [1]", "value": "< 4", "unit": "µg/mL"}, {"measurement": "MIC", "setting": "E. coli mL308 225; [2]", "value": "> 4", "unit": "µg/mL"}]}
{"smiles": "CCNCC(=O)NCc1cc(N(C)C)c2c(c1O)C(=O)C1=C(O)[C@]3(O)C(=O)C(C(N)=O)=C(O)[C@@H](N(C)C)[C@@H]3C[C@@H]1C2", "values": [{"measurement": "MIC", "setting": "S. aureus RN450; [1]", "value": "> 4", "unit": "µg/mL"}, {"measurement": "MIC", "setting": "E. coli mL308 225; [2]", "value": "> 4", "unit": "µg/mL"}]}
